# Measurements as given in patent US20220089636A1, “TETRAZOLONE SUBSTITUTED STEROIDS AND USE THEREOF” (Beijing Xuanyi PharmaSciences Co., Ltd., priority 2019, published 2022).
# Like-named read-outs stand apart in the source and are kept apart here.
# Experiments:
# α1β2γ2 GABAA receptor = target: T1, α1β2γ2 GABAA receptor (Homo sapiens, UniProt P14867+P47870); assay: Patch clamp electrophysiology assay of recombinant α1β2γ2 GABAA receptors (potentiation of 2 μM GABA-evoked Cl- current); assay type: cell-based; details: HEK293T cells stably transfected with α1β2γ2 GABAA; for EC50: whole cell, 2 μM GABA, -80 mV
# T1 construct: expressed in transfected cells
# Description: Cellular electrophysiology is used to measure the pharmacological properties of GABAA receptor modulators in heterologous cell systems. Each compound is tested for its ability to affect GABA mediated currents at a submaximal agonist dose (GABA EC20=2 μM). HEK293T cells are stably transfected with the α1β2γ2 subunits of the GABAA receptor. Flasks or dishes of HEK293 GABAA cells were maintained in the medium (DMEM, 11% (v/v) heat inactivated FBS, 100 or 200 μg/ml G418, 40 μg/ml Hygromycin B, 80 μg/ml Zeocin) and incubated at 37° C. in a humidified incubator with 5% CO2. 12 to 24 hours prior to electrophysiological recordings, the cells were plated on glass cover slips placed in culture dishes and maintained under the same incubation and media conditions. The number of cells being plated on the cover slip should reach a confluence rate at which majority of the cells are single.
# For the electrophysiological recordings in the study the following external and internal solutions were used (Table 1):
# HEKA EPC 10 USB patch clamp amplifier (from HEKA Elektronik, Germany) was used in the whole cell recording. A cover slip with plenty of single HEK293T-GABAA cells on the surface was removed and placed into a continuously perfused (approximately 1-2 ml/minute) recording chamber mounted on an inverted microscope. GABAA Cl^− current was recorded from single cell using standard whole cell recording techniques. 2 μM GABA was used to evoke GABAA Cl^− current (2 μM of GABA was the EC10-EC20 value of agonist GABA obtained internally on the stable GABAA cells used in this study). After achieving break-in (whole-cell) configuration, the cell was voltage clamped at a holding potential of −80 mV. Only stable cells meeting the recording parameters (membrane resistance Rm>500 MΩ, access resistance (Ra)<15 MΩ, leak current<100 pA in 90% of the recording time) were used. 2 μM GABA was applied to the cell to induce stable Cl^− current first as control for about 2 seconds, test compounds (i.e., compounds of formula (AI), (I), (AII), and (II), or any subgenera thereof) were followed to be applied to the cells for 3 min, then 2 μM GABA was applied to observe the potentiation effect on the GABAA Cl^− current. Different doses of test compound from low to high were applied to the same cell when the cell was stable. A cell was considered stable when current size evoked by 2 μM GABA applied to the cell from time to time was similar. To minimize the possible desensitation of GABAA Cl^− current, duration between applications of test articles was set to 180 seconds.
# Test compounds were dissolved in DMSO to form stock solutions (10 mM). Test compounds were diluted to 0.003, 0.01, 0.03, 0.1, 0.3, 1, 3 and 10 μM in bath solution. AU concentrations of test articles were tested on each cell. Data were analyzed using software provided by HEKA, Microsoft Excel and Graphpad Prism (Table 2).
# [1] = Mouse PK study (i.v. and p.o.); assay type: in vivo; details: plasma, male CD1 mice; for half-life: read-out: T1/2 (hr) i.v. (converted); for Vd: read-out: Vss; for bioavailability: 5 mg/kg p.o. vs 1 mg/kg i.v.
# Description: Test compounds were dosed to male CD1 mice at 5 mg/kg by oral gavage (p.o.) or 1 mg/kg by intravenous injection (i.v.). Blood samples were taken at 0.083, 0.25, 0.5, 1.0, 3.0, 6.0 and 24 hours post i.v. dosing and at 0.25, 0.5, 1.0, 3.0, 6.0 and 24 hours post p.o. dosing. The plasma concentration of compounds were determined by HPLC.
# [2] = iv, 1 mg/kg i.v., read-out: AUClast (hr*ng/mL) i.v.
# [3] = po, 5 mg/kg p.o., read-out: AUClast (hr*ng/mL) p.o.
# T1 sequence (P14867 28-456): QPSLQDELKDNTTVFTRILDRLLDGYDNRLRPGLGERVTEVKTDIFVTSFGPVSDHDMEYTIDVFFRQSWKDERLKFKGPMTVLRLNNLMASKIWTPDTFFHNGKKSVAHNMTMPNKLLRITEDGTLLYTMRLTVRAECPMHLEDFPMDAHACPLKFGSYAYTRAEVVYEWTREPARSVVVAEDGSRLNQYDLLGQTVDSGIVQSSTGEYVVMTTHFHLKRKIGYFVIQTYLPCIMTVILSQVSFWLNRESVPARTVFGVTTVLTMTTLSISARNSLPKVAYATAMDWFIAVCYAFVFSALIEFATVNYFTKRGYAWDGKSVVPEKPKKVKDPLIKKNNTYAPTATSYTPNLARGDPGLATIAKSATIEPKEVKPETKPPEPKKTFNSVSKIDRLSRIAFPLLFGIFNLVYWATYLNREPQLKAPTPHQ
# T1 sequence (P47870 25-512 limits assumed): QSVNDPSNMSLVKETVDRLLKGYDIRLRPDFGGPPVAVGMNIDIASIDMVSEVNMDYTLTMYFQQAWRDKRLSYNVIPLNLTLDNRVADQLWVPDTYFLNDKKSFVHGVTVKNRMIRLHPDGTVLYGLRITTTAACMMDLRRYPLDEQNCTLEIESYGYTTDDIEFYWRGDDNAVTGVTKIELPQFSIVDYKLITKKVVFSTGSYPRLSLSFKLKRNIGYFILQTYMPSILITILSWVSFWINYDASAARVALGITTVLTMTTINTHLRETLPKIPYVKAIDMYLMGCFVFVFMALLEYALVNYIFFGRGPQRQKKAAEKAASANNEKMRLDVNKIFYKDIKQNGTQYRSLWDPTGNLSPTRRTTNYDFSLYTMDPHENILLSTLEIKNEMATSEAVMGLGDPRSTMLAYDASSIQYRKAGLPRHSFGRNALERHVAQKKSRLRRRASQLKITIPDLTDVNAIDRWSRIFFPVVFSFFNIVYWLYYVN
# T1 sequence (P18507 40-475 partner): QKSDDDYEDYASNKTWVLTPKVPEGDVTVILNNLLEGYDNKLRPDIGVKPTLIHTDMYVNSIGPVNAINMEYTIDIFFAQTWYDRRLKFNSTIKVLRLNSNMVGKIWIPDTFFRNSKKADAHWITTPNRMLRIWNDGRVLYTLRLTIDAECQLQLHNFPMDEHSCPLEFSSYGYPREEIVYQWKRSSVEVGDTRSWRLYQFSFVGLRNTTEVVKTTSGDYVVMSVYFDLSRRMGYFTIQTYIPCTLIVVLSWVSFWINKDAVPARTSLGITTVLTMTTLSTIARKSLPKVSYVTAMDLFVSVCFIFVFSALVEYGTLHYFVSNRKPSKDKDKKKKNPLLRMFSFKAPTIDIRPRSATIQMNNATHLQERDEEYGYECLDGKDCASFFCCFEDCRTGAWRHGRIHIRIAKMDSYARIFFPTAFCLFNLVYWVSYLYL
SMILES,EC50 (α1β2γ2 GABAA receptor) [nM],"Emax (α1β2γ2 GABAA receptor; HEK-293T, potentiation of 2 μM GABA current) [%]","clearance ([1]; iv, 1 mg/kg i.v.) [mL/min/kg]","AUC(0-t) [1, 2] [ng·h/mL]","half-life ([1]; iv, 1 mg/kg i.v.) [h]","Vd ([1]; iv, 1 mg/kg i.v.) [L/kg]","Cmax ([1]; po, 5 mg/kg p.o.) [ng/mL]","Tmax ([1]; po, 5 mg/kg p.o.) [h]",bioavailability ([1]; po) [%],"AUC(0-t) [1, 3] [ng·h/mL]"
"C[C@@]1(O)CC[C@H]2[C@H](CC[C@@H]3[C@@H]2CC[C@]2(C)[C@@H](C(=O)Cn4nnn(-c5cccc(C#N)c5)c4=O)CC[C@@H]32)C1 [Example 14, 3-(4-(2-((3R,5R,8R,9R,10S,13S,14S,17S)-3-hydroxy-3,13-dimethylhexadecahydro-1H-cyclopenta[a]phenanthren-17-yl)-2-oxoethyl)-5-oxo-4,5-dihydro-1H-tetrazol-1-yl)benzonitrile]",7,974,20.5,771,1.44,1.92,250,1,28.9,1120
"CC(C)n1nnn(CC(=O)[C@H]2CC[C@H]3[C@@H]4CC[C@@H]5C[C@](C)(O)CC[C@@H]5[C@H]4CC[C@]23C)c1=O [Example 4, 1-(2-((3R,5R,8R,9R,10S,13S,14S,17S)-3-hydroxy-3,13-dimethylhexadecahydro-1H-cyclopenta[a]phenanthren-17-yl)-2-oxoethyl)-4-isopropyl-1,4-dihydro-5H-tetrazol-5-one]",140,–,24.8,659,0.54,0.88,808,0.25,25.8,782
"Cn1ccc(-n2nnn(CC(=O)[C@H]3CC[C@H]4[C@@H]5CC[C@@H]6C[C@](C)(O)CC[C@@H]6[C@H]5CC[C@]34C)c2=O)n1 [Example 27, 1-(2-((3R,5R,8R,9R,10S,13S,14S,17S)-3-hydroxy-3,13-dimethylhexadecahydro-1H-cyclopenta[a]phenanthren-17-yl)-2-oxoethyl)-4-(1-methyl-1H-pyrazol-3-yl)-1,4-dihydro-5H-tetrazol-5-one]",120,–,14.5,1110,1.09,1.14,1070,1,153,8770
"COc1ccc(-n2nnn(CC(=O)[C@H]3CC[C@H]4[C@@H]5CC[C@@H]6C[C@](C)(O)CC[C@@H]6[C@H]5CC[C@]34C)c2=O)cc1 [Example 15, 1-(2-((3R,5R,8R,9R,10S,13S,14S,17S)-3-hydroxy-3,13-dimethylhexadecahydro-1H-cyclopenta[a]phenanthren-17-yl)-2-oxoethyl)-4-(4-methoxyphenyl)-1,4-dihydro-5H-tetrazol-5-one]",5,–,30,542,1.05,1.76,106,1,10.8,292
"C[C@@]1(O)CC[C@H]2[C@H](CC[C@@H]3[C@@H]2CC[C@]2(C)[C@@H](C(=O)Cn4nnn(-c5cnco5)c4=O)CC[C@@H]32)C1 [Example 23, 1-(2-((3R,5R,8R,9R,10S,13S,14S,17S)-3-hydroxy-3,13-dimethylhexadecahydro-1H-cyclopenta[a]phenanthren-17-yl)-2-oxoethyl)-4-(oxazol-5-yl)-1,4-dihydro-5H-tetrazol-5-one]",96,–,–,–,–,–,–,–,–,–
"C[C@@]1(O)CC[C@H]2[C@H](CC[C@@H]3[C@@H]2CC[C@]2(C)[C@@H](C(=O)Cn4nnn(CCC#N)c4=O)CC[C@@H]32)C1 [Example 21, 3-(4-(2-((3R,5R,8R,9R,10S,13S,14S,17S)-3-hydroxy-3,13-dimethylhexadecahydro-1H-cyclopenta[a]phenanthren-17-yl)-2-oxoethyl)-5-oxo-4,5-dihydro-1H-tetrazol-1-yl)propanenitrile]",290,–,–,–,–,–,–,–,–,–
"Cn1cc(-n2nnn(CC(=O)[C@H]3CC[C@H]4[C@@H]5CC[C@@H]6C[C@](C)(O)CC[C@@H]6[C@H]5CC[C@]34C)c2=O)cn1 [Example 29, 1-(2-((3R,5R,8R,9R,10S,13S,14S,17S)-3-hydroxy-3,13-dimethylhexadecahydro-1H-cyclopenta[a]phenanthren-17-yl)-2-oxoethyl)-4-(1-methyl-1H-pyrazol-4-yl)-1,4-dihydro-5H-tetrazol-5-one]",280,–,–,–,–,–,–,–,–,–
"C[C@@]1(O)CC[C@H]2[C@H](CC[C@@H]3[C@@H]2CC[C@]2(C)[C@@H](C(=O)Cn4nnn(-c5cccc(F)c5)c4=O)CC[C@@H]32)C1 [Example 12, 1-(3-fluorophenyl)-4-(2-((3R,5R,8R,9R,10S,13S,14S,17S)-3-hydroxy-3,13-dimethylhexadecahydro-1H-cyclopenta[a]phenanthren-17-yl)-2-oxoethyl)-1,4-dihydro-5H-tetrazol-5-one]",9.3,–,8.33,1880,6.22,2.86,388,1,42.4,4140
"C[C@@]1(O)CC[C@H]2[C@H](CC[C@@H]3[C@@H]2CC[C@]2(C)[C@@H](C(=O)Cn4nnn(CC#N)c4=O)CC[C@@H]32)C1 [Example 20, 2-(4-(2-((3R,5R,8R,9R,10S,13S,14S,17S)-3-hydroxy-3,13-dimethylhexadecahydro-1H-cyclopenta[a]phenanthren-17-yl)-2-oxoethyl)-5-oxo-4,5-dihydro-1H-tetrazol-1-yl)acetonitrile]",560,–,–,–,–,–,–,–,–,–
"C[C@@]1(O)CC[C@H]2[C@H](CC[C@@H]3[C@@H]2CC[C@]2(C)[C@@H](C(=O)Cn4nnn(CC5CC5)c4=O)CC[C@@H]32)C1 [Example 7, 1-(cyclopropylmethyl)-4-(2-((3R,5R,8R,9R,10S,13S,14S,17S)-3-hydroxy-3,13-dimethylhexadecahydro-1H-cyclopenta[a]phenanthren-17-yl)-2-oxoethyl)-1,4-dihydro-5H-tetrazol-5-one]",99,–,68.7,239,0.6,1.69,186,0.5,27.6,326
"C[C@@]1(O)CC[C@H]2[C@H](CC[C@@H]3[C@@H]2CC[C@]2(C)[C@@H](C(=O)Cn4nn[nH]c4=O)CC[C@@H]32)C1 [Example 19, 1-(2-((3R,5R,8R,9R,10S,13S,14S,17S)-3-hydroxy-3,13-dimethylhexadecahydro-1H-cyclopenta[a]phenanthren-17-yl)-2-oxoethyl)-1,4-dihydro-5H-tetrazol-5-one]",24000,–,–,–,–,–,–,–,–,–
"C[C@@]1(O)CC[C@H]2[C@H](CC[C@@H]3[C@@H]2CC[C@]2(C)[C@@H](C(=O)Cn4nnn(C5CCCCC5)c4=O)CC[C@@H]32)C1 [Example 9, 1-cyclohexyl-4-(2-((3R,5R,8R,9R,10S,13S,14S,17S)-3-hydroxy-3,13-dimethylhexadecahydro-1H-cyclopenta[a]phenanthren-17-yl)-2-oxoethyl)-1,4-dihydro-5H-tetrazol-5-one]",1380,–,–,–,–,–,–,–,–,–
"C[C@@]1(O)CC[C@H]2[C@H](CC[C@@H]3[C@@H]2CC[C@]2(C)[C@@H](C(=O)Cn4nnn(C5CC5)c4=O)CC[C@@H]32)C1 [Example 6, 1-cyclopropyl-4-(2-((3R,5R,8R,9R,10S,13S,14S,17S)-3-hydroxy-3,13-dimethylhexadecahydro-1H-cyclopenta[a]phenanthren-17-yl)-2-oxoethyl)-1,4-dihydro-5H-tetrazol-5-one]",660,–,–,–,–,–,–,–,–,–
